Patent publication US12661410B2, “Compounds for targeted degradation of RET” (C4 Therapeutics, Inc., priority 2020, dated 2026)
Changes are numbered by the printed parent chain.

Tests used:
RET (658-1114) = biological target: T1, RET (658-1114) (Homo sapiens, UniProt P07949); assay: HiBiT-Degradation, RET wild-type degradation assay (Nano-Glo HiBiT Lytic), 293T.144 cells; assay type: cell-based; details: for Emax / DC50: 6.0 hours; for Emax: % remaining protein, read-out: 293T.144 RET (658-1114) 6.0 hours (Emax); for DC50: half-maximal degradation concentration, read-out: 293T.144 RET (658-1114) 6.0 hours (DC50)
T1 construct: 658-1114; expressed in transfected cells; host or cells: 293T.144 (293T cells, generated in-house)
T1 sequence (P07949 658-1114): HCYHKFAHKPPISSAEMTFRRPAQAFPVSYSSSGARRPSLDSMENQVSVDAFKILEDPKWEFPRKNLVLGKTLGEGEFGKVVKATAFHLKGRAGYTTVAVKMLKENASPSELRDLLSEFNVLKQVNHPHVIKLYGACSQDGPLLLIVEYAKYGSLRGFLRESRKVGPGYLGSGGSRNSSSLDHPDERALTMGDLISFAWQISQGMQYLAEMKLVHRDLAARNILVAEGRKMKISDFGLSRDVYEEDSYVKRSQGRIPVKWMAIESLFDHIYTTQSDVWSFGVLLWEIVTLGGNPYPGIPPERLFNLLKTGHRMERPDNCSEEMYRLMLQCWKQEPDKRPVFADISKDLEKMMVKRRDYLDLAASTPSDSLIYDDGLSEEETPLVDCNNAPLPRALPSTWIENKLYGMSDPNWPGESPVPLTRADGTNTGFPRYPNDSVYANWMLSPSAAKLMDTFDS
Description: (§1) Dulbecco's modified Eagle medium (DMEM) no-phenol red media and fetal bovine serum (FBS) were purchased from Gibco (Grand Island, NY, USA). Cell lines ectopically expressing wild-type or G810R RET kinase domain fused with a HiBiT tag were generated in-house (293T. 144 and 293T. 165, respectively). Cell culture flasks and 384-well microplates were acquired from VWR (Radnor, PA, USA). The Nano-Glo® HiBiT Lytic Assay System was purchased from Promega (Madison, WI, USA).
(§2) RET wild-type (WT) and G810R degradation were assessed using the Nano-Glo® HiBiT Lytic assay (Promega, Medison, WI, USA). To determine the effect of degraders on protein levels, cells were plated in 384-well plates and treated with compounds of interest in duplicates for 6 hours using an 11-point half-log dilution series, with the highest dose set at 10 μM. Cell lysis and addition of the Nano-Glo® HiBiT Lytic Assay reagents was then performed. Luminescence signal was measured using an EnVision™ Multimode plate reader (Perkin Elmer, Santa Clara, CA, USA). The half-maximal degradation concentration (DC50) and % remaining protein (Emax) was then derived from the dose-response curves.

RET(KD: 658-1114 G810R) = biological target: T2, RET(KD: 658-1114 G810R) (Homo sapiens, UniProt P07949, G810R); assay: HiBiT-Degradation, RET G810R degradation assay (Nano-Glo HiBiT Lytic), 293T.165 cells; assay type: cell-based; details: for Emax / DC50: 6.0 hours; for Emax: % remaining protein, read-out: 293T.165 RET(KD: 658-1114 G810R) 6.0 hours (Emax); for DC50: half-maximal degradation concentration, read-out: 293T.165 RET(KD: 658-1114 G810R) 6.0 hours (DC50)
T2 construct: 658-1114; expressed in transfected cells; host or cells: 293T.165 (293T cells, generated in-house)
T2 sequence (P07949 658-1114 G810R): T1 sequence (P07949 658-1114) with G153R
Description: as §1, §2

Row | Compound | 293T.144 RET (658-1114) 6.0 hours (IP) [nM] (RET (658-1114)) | Emax (RET (658-1114)) [%] | DC50 (RET (658-1114)) [nM] | 293T.165 RET(KD: 658-1114 G810R) 6.0 hours (IP) [nM] (RET(KD: 658-1114 G810R)) | Emax (RET(KD: 658-1114 G810R)) [%] | DC50 (RET(KD: 658-1114 G810R)) [nM]
1 | N#Cc1cnn2cc(-c3cnn([C@H]4CC[C@H](N5CCN(c6c(F)cc(N[C@@H]7CCC(=O)NC7=O)cc6F)CC5)CC4)c3)nc(-c3ccc(N4CCC5(CC4)OCc4cccnc45)nc3)c12 (racemic) [Compound 218, 6-[1-[4-[4-[2,6-difluoro-4-[[rac-(3R)-2,6-dioxo-3-piperidyl]amino]phenyl]piperazin-1-yl]cyclohexyl]pyrazol-4-yl]-4-(6-spiro[5H-furo[3,4-b]pyridine-7,4′-piperidine]-1′-yl-3-pyridyl)pyrazolo[1,5-a]pyrazine-3-carbonitrile] | ++++ (<50 nM = ++++) | < 30 | < 50 | ++++ (<50 nM = ++++) | < 30 | < 50
2 | CCC1(C(=O)NC(C)C)CCN(c2ccc(-c3nc(-c4cnn(C5CCN(C(=O)CN6C7CCC6CC(c6ccc(NC8CCC(=O)NC8=O)cc6F)C7)CC5)c4)cn4ncc(C#N)c34)cn2)CC1 (stereo not drawn) [Compound 94, 1-[5-[3-cyano-6-[1-[1-[2-[3-[4-[(2,6-dioxo-3-piperidyl)amino]-2-fluoro-phenyl]-8-azabicyclo[3.2.1]octan-8-yl]acetyl]-4-piperidyl]pyrazol-4-yl]pyrazolo[1,5-a]pyrazin-4-yl]-2-pyridyl]-4-ethyl-N-isopropyl-piperidine-4-carboxamide] | ++++ (<50 nM = ++++) | < 30 | < 50 | ++++ (<50 nM = ++++) | < 30 | < 50
3 | CC1(c2ncccn2)CCN(c2ccc(-c3nc(-c4cnn(C5CCN(C(=O)CC6(O)CCN(c7ccc(NC8CCC(=O)NC8=O)cc7F)CC6)CC5)c4)cn4ncc(C#N)c34)cn2)CC1 (stereo not drawn) [Compound 104, 6-[1-[1-[2-[1-[4-[(2,6-dioxo-3-piperidyl)amino]-2-fluoro-phenyl]-4-hydroxy-4-piperidyl]acetyl]-4-piperidyl]pyrazol-4-yl]-4-[6-(4-methyl-4-pyrimidin-2-yl-1-piperidyl)-3-pyridyl]pyrazolo[1,5-a]pyrazine-3-carbonitrile] | ++++ (<50 nM = ++++) | < 30 | < 50 | ++++ (<50 nM = ++++) | < 30 | < 50
4 | COc1cc(N2CCN([C@H]3CC[C@H](n4cc(-c5cn6ncc(C#N)c6c(-c6ccc(N7CC8CC(C7)N8Cc7ccccc7S(C)(=O)=O)nc6)n5)cn4)CC3)CC2)c(F)cc1NC1CCC(=O)NC1=O (stereo partly drawn) [Compound 217, 6-[1-[4-[4-[4-[(2,6-dioxo-3-piperidyl)amino]-2-fluoro-5-methoxy-phenyl]piperazin-1-yl]cyclohexyl]pyrazol-4-yl]-4-[6-[6-[(2-methylsulfonylphenyl)methyl]-3,6-diazabicyclo[3.1.1]heptan-3-yl]-3-pyridyl]pyrazolo[1,5-a]pyrazine-3-carbonitrile] | ++++ (<50 nM = ++++) | < 30 | < 50 | ++++ (<50 nM = ++++) | < 30 | < 100
5 | CC(C)(C)CC(=O)N1[C@@H]2COC[C@H]1CN(c1ccc(-c3nc(-c4cnn([C@H]5CC[C@@H](N6CCN(c7ccc(NC8CCC(=O)NC8=O)cc7F)CC6)CC5)c4)cn4ncc(C#N)c34)cn1)C2 (single isomer, unassigned) [Compound 158] | ++++ (<50 nM = ++++) | < 30 | < 50 | ++++ (<50 nM = ++++) | < 30 | < 50
